Where a name gives a salt, the structure may show the parent alone. Read-outs that look alike come from different tables or passages of the source.
Assays:
virally infected cells = assay: Activity against virally infected cells relative to 2-thiophenecarboxylic acid; assay type: cell-based
[1] = test system: cancer cells in tissue culture; assay: Activity against cancer cells in tissue culture relative to 2-thiophenecarboxylic acid
CHO cells [2] = assay: Growth of CHO cells (cell counts at 24, 48 and 72 h); details: for inhibition at 3000 µM / inhibition at 10000 µM / inhibition at 1000 µM: Cricetulus griseus, CHO, read-out: growth inhibition; for time within which growth was strongly inhibited: 1 mM and 3 mM
Method: Cells were plated at 1.5×10^5 cells/60-mm dish; 24 hours later, the medium was removed, and new media with or without 0.05 to 10 mM final concentrations of 2-Furoic acid were added. Cell counts were determined at 24, 48 and 72 h after the addition of 2-Furoic acid; each point is the average of triplicate measurements from 3 cultures.

CHO cells [3] = test system: CHO cells
LD-50 = details: in vivo
[4] = test system: human breast adenocarcinoma MDA-468 cell; assay: Growth and viability of breast adenocarcinoma MDA-468 cells; assay type: cell-based; details: 50 μM
Method: These floating cells were not viable. Within 48 h of treatment there was greater than 90% decrease in cell number.

[5] = test system: many different cancer cell lines; assay: Cytotoxicity in cancer cell lines in vitro; details: uM concentrations
LTA4 hydrolase = LTA4 hydrolase (Homo sapiens, UniProt P09960); details: cited from earlier work
[6] = test system: Human Foreskin (HF) cells infected with HSV-2-strain G; assay type: cell-based

Sequence of LTA4 hydrolase (P09960 whole entry): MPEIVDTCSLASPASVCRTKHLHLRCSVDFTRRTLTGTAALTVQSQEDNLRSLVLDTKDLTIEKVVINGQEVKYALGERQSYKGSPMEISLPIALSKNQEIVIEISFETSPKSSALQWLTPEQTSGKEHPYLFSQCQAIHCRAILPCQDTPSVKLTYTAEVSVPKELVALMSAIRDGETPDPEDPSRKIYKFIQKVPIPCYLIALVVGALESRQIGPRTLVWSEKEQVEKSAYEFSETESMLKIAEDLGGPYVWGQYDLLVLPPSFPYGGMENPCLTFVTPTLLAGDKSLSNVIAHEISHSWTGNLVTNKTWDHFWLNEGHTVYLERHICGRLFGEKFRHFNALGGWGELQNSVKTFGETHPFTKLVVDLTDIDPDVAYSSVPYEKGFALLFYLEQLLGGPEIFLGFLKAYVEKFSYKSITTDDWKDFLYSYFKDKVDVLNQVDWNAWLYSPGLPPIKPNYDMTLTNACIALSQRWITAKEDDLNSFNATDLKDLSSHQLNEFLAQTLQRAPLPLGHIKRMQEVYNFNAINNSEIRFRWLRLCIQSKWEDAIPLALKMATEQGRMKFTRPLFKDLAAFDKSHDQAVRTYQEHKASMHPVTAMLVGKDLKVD

With `CCCCc1csc(C(=O)NN)c1Cl` the “times more active than 2-thiophenecarboxylic acid” value (virally infected cells) was 7-10 times and the “times more active than 2-thiophenecarboxylic acid” value [1] was 7-10 times.
In the case of `O=C(O)c1ccco1` [2-Furoic acid], the “time within which growth was inhibited in a dose-dependent fashion” value (CHO cells [2]; CHO cells, 3 to 10 mM) is reported as ≤ 24 h, the inhibition at 3000 µM (CHO cells [2]; 72 h) is reported as ~20% and the inhibition at 10000 µM (CHO cells [2]; 72 h) is reported as ~40%. For the same compound, the “toxic effects on the cells” value (CHO cells [3]) was “no significant toxic effects”.
In the case of `NNC(=O)c1cccs1` [2-TCAH, 2-thiophenecarboxylic acid hydrazide], the “time within which growth was inhibited in a dose-dependent fashion” value (CHO cells [2]; CHO cells) is reported as ≤ 24 h, the inhibition at 1000 µM (CHO cells [2]; 72 h) is reported as ~65% and the inhibition at 10000 µM (CHO cells [2]; 72 h) is reported as ~90%. For the same compound, the “toxic effects on the cells” value (CHO cells [3]) was “significant toxic effects”.
With `O=C(O)c1cccs1` [2-TH acid, 2-thiophenecarboxylic acid] the LD-50 (LD-50) was 30 grams/70 Kg.
With `O=C(O)c1oc(Cl)c(Cl)c1Cl` [3,4,5-TFA, 3,4,5-Trichloro-2-Furoic acid] the “time within which growth was strongly inhibited” value (CHO cells [2]; CHO cells) was ≤ 12 h, the inhibition at 1000 µM (CHO cells [2]) was > 80% and the inhibition at 3000 µM (CHO cells [2]) was > 99%. For the same compound, the “cytotoxicity and cell death, share of CHO cells” value (CHO cells [3]; Chinese hamster, 3 mM) was “greater than 99%”.
In the case of `NN.O=C(O)c1sc(Cl)c(Cl)c1Cl` [3,4,5-TTAH], the “growth of CHO cells” value (CHO cells [2]; 500 uM) is reported as “strongly inhibited”, the “cytotoxicity and cell death, share of CHO cells” value (CHO cells [3]; 500 uM, 24-72 hours exposure) is reported as “greater than 95%” and the “detached cells destroyed by the agent” value (CHO cells [3]; 500 uM, 72 h, trypan blue dye exclusion test) is reported as > 99.9%.
In the case of `O=C(O)c1sc(Cl)c(Cl)c1Cl` [3,4,5-TTA], the “time within which growth was strongly inhibited” value (CHO cells [2]; CHO cells) is reported as ≤ 6 h, the inhibition at 1000 µM (CHO cells [2]) is reported as > 98% and the inhibition at 3000 µM (CHO cells [2]) is reported as 100%.
With `CCCCc1csc(C(=O)NN)c1` [4-B-2-TAH, 4-butyl-2-Thiophenecarboxylic Acid Hydrazide] the “cell number” value ([4]; after 12 hours of treatment) was “no further increase in cell number”, the “decrease in cell number” value ([4]; within 48 h of treatment) was “greater than 90%” and the “cytotoxic effects” value [5] was “pronounced cytotoxic effects”.
In the case of `C[C@H](CS)C(=O)N1CCC[C@H]1C(=O)O` [Captopril], the “inhibition of LTA4 hydrolase, concentration range” value (LTA4 hydrolase) is listed as “low uM range”.
In the case of `c1ccsc1` [Thiophene, reference compound], the “effect on cell growth” value (CHO cells [2]; CHO cells, analog tested at 0.05 to 10 mM, up to 72 h) is reported as “no significant effect on cell growth”.
For `O=C(O)c1ccccn1` [picolinic acid], the “effect on infected cells” value [6] was “cause apoptosis of HF infected cells”.
